Like-named read-outs stand apart in the source and are kept apart here.
Experiments:
[1] = test system: female Japanese quail (Coturnix japonica); assay: Liver histological analysis (histopathological index); type: in vivo
Excerpt: (§1) A total of 50 eighty-five days-old female quail of homogeneous body weights (251 ± 1 g; Mean ± SE) and in their egg-laying peak were selected from an initial group of 96 female individuals. All birds continued receiving a basal diet between 85 and 100 days of age and all variables (see below for details) were registered along this period (Pre-supplementation period, Fig 1). From 100 to 128 days of age (S period, Fig 1), females were randomly assigned to either a chronic dietary supplementation with one of 3 THY doses (THY2, THY4 and THY6; 10 females each) or to one of 2 control groups (basal diet, BASAL, and basal diet with vehicle solution, VEHICLE; 10 females each). Once finished the S period, half of the quail were slaughtered for histological analysis (n = 25; Slaughter 1, Fig 1) and the other half were subjected to a pS period of 21 days, during which all females received the BASAL diet (pS, Fig 1). After this period, the remaining 25 animals were also slaughtered for histological analysis (Slaughter 2, Fig 1). In this way, we assessed whether THY induced changes in variables indicative of tissue damage and if so, whether the potential damages could reverse after 3 weeks of supplement withdrawal.
At each slaughter point birds were euthanized by decapitation and livers were removed and stored in buffered formalin at 10%, processed routinely and stained with hematoxylin and eosin (H&E) and periodic acid-Schiff (PAS). Each slide was examined blinded, with a light microscope (Olympus X-785) and photographed with a digital camera (Moticam Camera 2300, 3 Megapixels). To evaluate histological alterations of liver, tissue was divided into 8 random equal areas to ensure there was no overlapping of the studied areas. For each area, the extension and number of each alteration were recorded with a microscope at 40X magnitude. Histopathological index of liver (HIliv) were estimated using a semi-quantitative protocol following, modified by our colleagues. Briefly, alterations were classified into four major reaction patterns each one of those including alterations that concern to different functional units of the liver or to the whole organ: RP1, circulatory disturbances (dilatation of sinusoids, vascular congestion, hemorrhage); RP2, regressive changes (steatosis or fatty degeneration, hydropic degeneration, nuclear alteration, fibrosis, necrosis); RP3, progressive changes (oval cells, cell hypertrophy and hyperplasia); and RP4, liver inflammation (leukocyte infiltration). Then, for each RP, an index was calculated based on two factors: the pathological importance of the lesions (importance factor, W) (range 1–3) and the extension of pathological change (score value, a) from 0 (unchanged) to 8 (extreme occurrence). Finally, a total liver histopathological index (HIliv) was calculated by adding the single RP liver indices of each individual quail. A greater value of (HIliv) reflects the most severely affected individual.

female quail = test system: female quail; set-up: method as in ref 41 = [41]; 41 Labaque MC , Kembro JM , Luna A , Marin RH . Effects of thymol feed supplementation on female Japanese quail ( Coturnix coturnix ) behavioral fear response . Anim Feed Sci Technol . 2013; 183 ( 1–); conditions: THY2, 2 g of THY per kg of feed; cited from earlier work
[2] = Thymol quantification in quail droppings (HS-SPME/GC-MS) during chronic dietary supplementation; type: in vivo, Coturnix japonica; conditions: for concentration at 2 days / concentration at 9 days / concentration at 16 days / concentration at 26 days: female, Japanese quail (Coturnix japonica), droppings, oral, read-out: THY concentration in droppings
Excerpt: as §1
To assess changes in egg yolk total FA composition, egg physical characteristics, laying rate, body weight, feed intake and general welfare, during the S and pS periods, five sampling points were defined (Sample points, Fig 1): one initial sample point (at 0 days of S); three sample points during the S period (at 7, 14 and 28 days of S); and one sample point at the end of the pS period (21 days of pS). It should be noted that for determinations of THY concentration, eggs and quail droppings were collected offset from the other variables measured by 2 days, thus were collected on days 2, 9, 16, and 26 days of S, and 17 days of pS, respectively.
Thymol was commercially obtained from Sigma-Aldrich (SAFC®, ⩾99%; FCC, Saint Louis, MO, USA). Supplemented quail were provided 2, 4 or 6.25 g of THY per kg of feed. For this end, THY was prepared in a 2.4, 4.8 and 7.5% w/v ethanolic solution and uniformly sprayed on fresh feed. The feed was prepared and administrated daily, to minimize THY volatilization from feed before its consumption by females. The doses were selected considering two factors. The first, the concentration range for which the transfer of THY to the chicken and/or quail egg has been established. Second, the concentrations of THY supplementation that have shown biological effects. […] In this context, THY4 is and intermediate dose between the last two. Nutrient and FA compositions of the diets supplied were identical between each other and are reported in S1, S2 and S3 Tables, and are in accordance with the National Research Council recommendation.
Egg yolks and droppings of each female were obtained at each sample point (Sample points, Fig 1) and THY concentration was immediately measured by head space-solid phase microextraction followed by gas chromatography-mass spectrometry (HS-SPME/GC-MS) according to Fernandez et al.. SPME was performed with a manual holder with 100 um polydimethylsiloxane (PDMS) fiber. An aliquot of egg yolk (3 g), droppings (5 g) or feed (5 g) was put in a sealed 20 mL glass vial, spiked at the corresponding level with the standard m-cresol (Sigma-Aldrich; ≥ 99% (GC); Saint Louis, MO, USA) stock solution, and vortexed for 5 min. The vials were placed in a water bath and the PDMS fiber was exposed to the headspace for 30 min at 60°C and 5 min at 40°C for egg yolk and droppings or feed, respectively. The fiber was then inserted directly into the GC injector for desorption at 250°C for 10 min in splitless mode. Chromatography analysis was carried out in a Perkin Elmer Clarus 600 equipped with a PSSI injector and a quadrupole MS detector (Perkin Elmer, USA). Turbo Mass 5.4.2 software was used to control and acquire data from GC–MS. […]

[3] = overall mean over control and 2, 4, 6.25 g thymol/kg feed diets and two slaughter batches
[4] = overall mean over control and 2, 4, 6.25 g thymol/kg feed diets and two slaughter batches, no effect of diet
[5] = THY2, 2 g of thymol/kg of feed, pS, 17 days of supplement withdrawal
[6] = THY4, 4 g of thymol/kg of feed, pS, 17 days of supplement withdrawal
[7] = THY6, 6.25 g of thymol/kg of feed, pS, 17 days of supplement withdrawal

Cc1ccc(C(C)C)c(O)c1 [THY, 2 isopropyl-5-methylphenol]
effect on histopathological features of the liver ([1]; 2, 4, 6.25 g of THY/kg feed, 28 days S and 21 days pS): did not affect
HILiv.Rp3 (liver histopathological index, progressive changes) [1, 3]: 0,80
HILiv.Rp4 (liver histopathological index, inflammation) [1, 3]: 0,27
HILiv (total liver histopathological index) [1, 4]: 22,58
HILiv.Rp2 (liver histopathological index, regressive changes) [1, 4]: 16,80
bird's locomotor activity (female quail): without affecting
female quail fear responses when exposed to stressful situations (female quail): reduces female quail fear responses
Percentage of THY transferred to droppings in relation to the amount ingested ([2]; THY2, 2 g of thymol/kg of feed, 2 days of S): 0.53%
Percentage of THY transferred to droppings in relation to the amount ingested ([2]; THY2, 2 g of thymol/kg of feed, 9 days of S): 2.33%
Percentage of THY transferred to droppings in relation to the amount ingested ([2]; THY2, 2 g of thymol/kg of feed, 16 days of S): 2.41%
Percentage of THY transferred to droppings in relation to the amount ingested ([2]; THY2, 2 g of thymol/kg of feed, 26 days of S): 3.47%
Percentage of THY transferred to droppings in relation to the amount ingested [2, 5]: 0.04%
THY concentration in droppings [2, 5]: 4.37 ng/g
Percentage of THY transferred to droppings in relation to the amount ingested ([2]; THY4, 4 g of thymol/kg of feed, 2 days of S): 0.25%
Percentage of THY transferred to droppings in relation to the amount ingested ([2]; THY4, 4 g of thymol/kg of feed, 9 days of S): 1.78%
Percentage of THY transferred to droppings in relation to the amount ingested ([2]; THY4, 4 g of thymol/kg of feed, 16 days of S): 1.91%
Percentage of THY transferred to droppings in relation to the amount ingested ([2]; THY4, 4 g of thymol/kg of feed, 26 days of S): 2.11%
Percentage of THY transferred to droppings in relation to the amount ingested [2, 6]: 0.12%
THY concentration in droppings [2, 6]: 30.58 ng/g
Percentage of THY transferred to droppings in relation to the amount ingested ([2]; THY6, 6.25 g of thymol/kg of feed, 2 days of S): 0.21%
Percentage of THY transferred to droppings in relation to the amount ingested ([2]; THY6, 6.25 g of thymol/kg of feed, 9 days of S): 1.33%
Percentage of THY transferred to droppings in relation to the amount ingested ([2]; THY6, 6.25 g of thymol/kg of feed, 16 days of S): 1.74%
Percentage of THY transferred to droppings in relation to the amount ingested ([2]; THY6, 6.25 g of thymol/kg of feed, 26 days of S): 1.57%
Percentage of THY transferred to droppings in relation to the amount ingested [2, 7]: 0.09%
THY concentration in droppings [2, 7]: 37.95 ng/g
THY transferred to the droppings, of the amount THY ingested ([2]; during the plateau, across THY2, THY4, THY6): 1.57–3.47%
concentration at 2 days ([2]; 2 g/kg of feed, THY2, 2 g of thymol/kg of feed, 2 days of S): 51.8 ng/g
concentration at 9 days ([2]; 2 g/kg of feed, THY2, 2 g of thymol/kg of feed, 9 days of S): 229 ng/g
concentration at 16 days ([2]; 2 g/kg of feed, THY2, 2 g of thymol/kg of feed, 16 days of S): 237 ng/g
concentration at 26 days ([2]; 2 g/kg of feed, THY2, 2 g of thymol/kg of feed, 26 days of S): 342 ng/g
concentration at 2 days ([2]; 4 g/kg of feed, THY4, 4 g of thymol/kg of feed, 2 days of S): 63.5 ng/g
concentration at 9 days ([2]; 4 g/kg of feed, THY4, 4 g of thymol/kg of feed, 9 days of S): 459 ng/g
concentration at 16 days ([2]; 4 g/kg of feed, THY4, 4 g of thymol/kg of feed, 16 days of S): 491 ng/g
concentration at 26 days ([2]; 4 g/kg of feed, THY4, 4 g of thymol/kg of feed, 26 days of S): 542 ng/g
concentration at 2 days ([2]; 6.25 g/kg of feed, THY6, 6.25 g of thymol/kg of feed, 2 days of S): 85 ng/g
concentration at 9 days ([2]; 6.25 g/kg of feed, THY6, 6.25 g of thymol/kg of feed, 9 days of S): 550 ng/g
concentration at 16 days ([2]; 6.25 g/kg of feed, THY6, 6.25 g of thymol/kg of feed, 16 days of S): 721 ng/g
concentration at 26 days ([2]; 6.25 g/kg of feed, THY6, 6.25 g of thymol/kg of feed, 26 days of S): 650 ng/g

Source: PMC6508865, “Dynamics of thymol dietary supplementation in quail (Coturnix japonica): Linking bioavailability, effects on egg yolk total fatty acids and performance traits” (PLoS ONE, 2019)
